Measured values from US11911504B2, “Apparatus and method for protecting neurons and reducing inflammation and scarring” (GALEN THERAPEUTICS LLC, priority 2018, dated 2024).

Experiments:
[1] = system: rat limbic system; conditions: pretreatment of rats, systemic kainic acid seizure; cited from earlier work
[2] = system: mechanical hyperalgesia of the affected hind paw; assay: Mechanical hyperalgesia (von Frey foot withdrawal) after L5 spinal nerve ligation; assay type: in vivo; conditions: SNL mice, PBN 150 mg/kg i.p. or 100 μg i.t.
Protocol: Inhibition of neuron death using one of the anti-oxidant agents described above is examined in a spinal injury model as described below. The oxidation inhibitor used is phenyl-N-tert-butylnitrone, a ROS scavenger. Peripheral nerve injury is induced by tightly ligating the L5 spinal nerve under isoflurane anesthesia (2% induction and 1.5% maintenance). Seven days after SNL, mice are randomly divided into treatment and control groups. Mice belonging to one treatment group are injected by one of two different routes with phenyl-N-tert-butylnitrone, PBN (Sigma, St. Louis, Mo.). Doses of PBN used are 150 mg/kg (i.p., 0.1 ml) or 100 μg (i.t., 5 μl), dissolved in saline at a concentration of 20 mg/ml. Mice in the control groups are treated with the same volume of saline. […]
Pain behavior is tested by assessing mechanical hyperalgesia of the affected hind paw. […] Mechanical hyperalgesia of the hind paw is measured by determining the frequency of foot withdrawals to 10 stimuli applied with a von Frey (vF) filament (Stoelting, Wood Dale, Ill.). […] Response rates are calculated as a percentage of the number of positive responses/10 stimuli.

[3] = system: GABA neurons; assay: Whole-cell patch recording in lumbar spinal cord slices; assay type: cell-based, mouse; conditions: spinal cord slices of PBN treated mice

COc1cccc(C=NCCN=Cc2cccc(OC)c2[O-])c1[O-].[Cl-].[Mn+3] [EUK-134]
activator protein-1- and NF-kB-binding activity [1]: reduction
increased protein nitration [1]: reduction
neuronal damage resulting from seizure activity in limbic structures [1]: reduction
spectrin proteolysis [1]: reduction

CC(C)(C)[N+]([O-])=Cc1ccccc1 [PBN, phenyl-N-tert-butylnitrone]
foot withdrawal to von Frey filament (pain behavior) [2]: withdraw their foot less abruptly
action potential discharge (excitatory) pattern of surviving neurons [3]: superior action potential discharge (excitatory) pattern
excitability and firing activity of GABA neurons [3]: restore excitability and prevent suppression of firing activity
